Experimental data: patent US10954214B2 (Janssen Pharmaceutica NV, priority 2016, dated 2021)

Columns and labels:
[1] = tested on: IL6 secretion by TMD8 ABC-DLBCL cells; assay: Human IL6 Mesoscale assay (TMD-8); type: cell-based; details: Homo sapiens, TMD8; TMD-8 cells, 24 h
Summary of the method: (§1)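 After 24 h at 37 °C with test compounds (15 μM down to 58.6 nM, 9 twofold steps, 0.3% DMSO), IL6 and IL10 secreted by 100,000 OCI-LY3 or TMD8 cells per well were measured in supernatants with a Mesoscale immunoassay. Data were scaled between DMSO wells (high) and RN486 treatment (low).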

[2] = tested on: IL6 secretion by OCI-LY3 ABC-DLBCL cells; assay: Human IL6 Mesoscale assay (OCI-LY3); type: cell-based; details: Homo sapiens, 24 h
Summary of the method: as §1

[3] = target: full-length MALT1 protein (Strep-MALT1(1-824)-His) (Homo sapiens (Human), UniProt Q9UDY8); assay: MALT1 Biochemical Protease Assay (Ac-LRSR-AMC substrate); details: 10 nM FL MALT1, 200 μM Ac-LRSR-AMC, 4 h at RT; read-out: MALT1_Biochemical activity (Ac-LRSR-amc) IC50
Summary of the method: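 Fluorescence from AMC release off the quenched LRSR substrate was read after a 4 h reaction at RT. Values were normalised to no-enzyme and uninhibited controls and fitted for IC50 and Hill coefficient.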

[4] = tested on: IL10 secretion by TMD8 ABC-DLBCL cells; assay: Human IL10 Mesoscale assay (TMD-8); type: cell-based; details: Homo sapiens, TMD8; TMD-8 cells, 24 h
Summary of the method: as §1

[5] = tested on: IL10 secretion by OCI-LY3 ABC-DLBCL cells; assay: Human IL10 Mesoscale assay (OCI-LY3); type: cell-based; details: Homo sapiens, 24 h
Summary of the method: as §1

Chain of full-length MALT1 protein (Strep-MALT1(1-824)-His) (Q9UDY8 whole entry): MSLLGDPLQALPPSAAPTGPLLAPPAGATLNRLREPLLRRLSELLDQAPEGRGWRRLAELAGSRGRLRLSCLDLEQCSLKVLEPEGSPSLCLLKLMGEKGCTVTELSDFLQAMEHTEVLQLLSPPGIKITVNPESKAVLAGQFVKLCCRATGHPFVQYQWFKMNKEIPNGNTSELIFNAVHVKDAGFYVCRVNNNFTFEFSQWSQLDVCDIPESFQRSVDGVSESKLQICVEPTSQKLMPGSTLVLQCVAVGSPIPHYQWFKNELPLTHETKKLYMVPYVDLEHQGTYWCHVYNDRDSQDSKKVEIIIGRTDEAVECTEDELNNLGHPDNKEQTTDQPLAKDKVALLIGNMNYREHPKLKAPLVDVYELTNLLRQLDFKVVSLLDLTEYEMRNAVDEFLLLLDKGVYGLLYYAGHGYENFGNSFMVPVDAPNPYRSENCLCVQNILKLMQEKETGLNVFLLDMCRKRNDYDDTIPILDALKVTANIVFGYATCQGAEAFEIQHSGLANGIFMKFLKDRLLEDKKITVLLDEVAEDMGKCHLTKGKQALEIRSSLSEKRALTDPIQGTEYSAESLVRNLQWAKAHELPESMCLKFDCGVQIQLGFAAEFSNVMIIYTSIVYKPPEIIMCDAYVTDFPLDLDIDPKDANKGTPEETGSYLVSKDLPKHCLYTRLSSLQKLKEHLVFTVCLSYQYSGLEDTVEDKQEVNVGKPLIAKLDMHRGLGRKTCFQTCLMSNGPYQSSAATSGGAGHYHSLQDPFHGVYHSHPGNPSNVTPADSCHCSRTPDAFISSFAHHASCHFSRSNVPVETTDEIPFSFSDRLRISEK

Structure (SMILES)	IC50 [1] [nM]	IC50 [2] [nM]	IC50 [3] [nM]	IC50 [4] [nM]	IC50 [5] [nM]
Cc1nc(-n2nccn2)c(Cl)cc1NC(=O)c1cnn(-c2cccc3nccn23)c1C(F)(F)F [Cpd 194, N-(5-chloro-2-methyl-6-(2H-1,2,3-triazol-2-yl)pyridin-3-yl)-1-(imidazo[1,2-a]pyridin-5-yl)-5-(trifluoromethyl)-1H-pyrazole-4-carboxamide]	78	100	76	98	68
Cn1ccc(-c2ncc(NC(=O)c3cnn(-c4ccc(F)c5ncccc45)c3C(F)(F)F)cc2C#N)n1 [Cpd 268, N-(5-cyano-6-(1-methyl-1H-pyrazol-3-yl)pyridin-3-yl)-1-(8-fluoroquinolin-5-yl)-5-(trifluoromethyl)-1H-pyrazole-4-carboxamide]	158	95	155	229	63
Cn1ncc2c(-n3ncc(C(=O)Nc4cnc(-n5nccn5)c(C#N)c4)c3C(F)(F)F)ccnc21 [Cpd 241, N-(5-cyano-6-(2H-1,2,3-triazol-2-yl)pyridin-3-yl)-1-(1-methyl-1H-pyrazolo[3,4-b]pyridin-4-yl)-5-(trifluoromethyl)-1H-pyrazole-4-carboxamide]	49	51	562	69	37
Cc1cc(NC(=O)c2cnn(-c3cccc4ncccc34)c2C(F)(F)F)ccc1-n1cc(CN)cn1 [Cpd 238, N-(4-(4-(aminomethyl)-1H-pyrazol-1-yl)-3-methylphenyl)-1-(quinolin-5-yl)-5-(trifluoromethyl)-1H-pyrazole-4-carboxamide]	32	44	676	50	35
Cn1ncc2cccc(-n3ncc(C(=O)Nc4cnc(-n5nccn5)c(C#N)c4)c3C(F)(F)F)c21 [Cpd 260, N-(5-cyano-6-(2H-1,2,3-triazol-2-yl)pyridin-3-yl)-1-(1-methyl-1H-indazol-7-yl)-5-(trifluoromethyl)-1H-pyrazole-4-carboxamide]	> 3020	> 3020	204	> 3020	> 3020
O=C(Nc1cnc(-n2nccn2)c(Cl)c1)c1cnn(-c2cccc3nc(F)ccc23)c1C(F)(F)F [Cpd 277, N-(5-chloro-6-(2H-1,2,3-triazol-2-yl)pyridin-3-yl)-1-(2-fluoroquinolin-5-yl)-5-(trifluoromethyl)-1H-pyrazole-4-carboxamide]	170	89	132	95	87
COc1nccc2c(-n3ncc(C(=O)Nc4cnc(-n5nccn5)c(Cl)c4)c3C(F)(F)F)cccc12 [Cpd 243, N-(5-chloro-6-(2H-1,2,3-triazol-2-yl)pyridin-3-yl)-1-(1-methoxyisoquinolin-5-yl)-5-(trifluoromethyl)-1H-pyrazole-4-carboxamide]	363	120	417	339	129
N#Cc1cc(NC(=O)c2cnn(-c3cnc4ccccn34)c2C(F)(F)F)cnc1-n1nccn1 [Cpd 189, N-(5-cyano-6-(2H-1,2,3-triazol-2-yl)pyridin-3-yl)-1-(imidazo[1,2-a]pyridin-3-yl)-5-(trifluoromethyl)-1H-pyrazole-4-carboxamide]	107	39	78	63	27
Cc1nc(-n2cccn2)c(Cl)cc1NC(=O)c1cnn(-c2cccc3nnsc23)c1C(F)(F)F [Cpd 303, 1-(benzo[d][1,2,3]thiadiazol-7-yl)-N-(5-chloro-2-methyl-6-(1H-pyrazol-1-yl)pyridin-3-yl)-5-(trifluoromethyl)-1H-pyrazole-4-carboxamide]	234	251	282	174	275
N#Cc1cc(NC(=O)c2cnn(-c3cncc4ccccc34)c2C(F)(F)F)cnc1C(=O)NCCCCN [Cpd 236, N-(4-aminobutyl)-3-cyano-5-(1-(isoquinolin-4-yl)-5-(trifluoromethyl)-1H-pyrazole-4-carboxamido)picolinamide]	1380	380	724	427	309
NC(=O)c1cnn(-c2ccc(NC(=O)c3cnn(-c4cccc5ncccc45)c3C(F)(F)F)cc2Cl)n1 [Cpd 244, 2-(2-chloro-4-(1-(quinolin-5-yl)-5-(trifluoromethyl)-1H-pyrazole-4-carboxamido)phenyl)-2H-1,2,3-triazole-4-carboxamide]	741	174	398	245	155

Now from value to compound:

IC50 [1] [nM]	IC50 [2] [nM]	IC50 [3] [nM]	IC50 [4] [nM]	IC50 [5] [nM]	Structure (SMILES)
54	13	107	46	10	O=C1COC(c2ncc(-n3ncc(C(=O)Nc4cnc(-n5nccn5)c(Cl)c4)c3C(F)(F)F)c3ccccc23)C1 (centres unmarked) [Cpd 370, N-(5-chloro-6-(2H-1,2,3-triazol-2-yl)pyridin-3-yl)-1-(1-(4-oxotetrahydrofuran-2-yl)isoquinolin-4-yl)-5-(trifluoromethyl)-1H-pyrazole-4-carboxamide]
141	54	112	162	81	O=C(Nc1cnc(-n2nccn2)c(Cl)c1)c1cnn(-c2cccc3c2ccc[n+]3[O-])c1C(F)(F)F [Cpd 408, 5-(4-((5-chloro-6-(2H-1,2,3-triazol-2-yl)pyridin-3-yl)carbamoyl)-5-(trifluoromethyl)-1H-pyrazol-1-yl)quinoline 1-oxide]
562	148	214	708	135	CN(C)c1ncc(-n2ncc(C(=O)Nc3cnc(-n4nccn4)c(Cl)c3)c2C(F)(F)F)c2ccccc12 [Cpd 322, N-(5-chloro-6-(2H-1,2,3-triazol-2-yl)pyridin-3-yl)-1-(1-(dimethylamino)isoquinolin-4-yl)-5-(trifluoromethyl)-1H-pyrazole-4-carboxamide]
78	100	23	98	68	O=C(Nc1cnc(-n2nccn2)c(Cl)c1)c1cnn(-c2cccc3cnccc23)c1C(F)(F)F [Cpd 449, N-(5-chloro-6-(2H-1,2,3-triazol-2-yl)pyridin-3-yl)-1-(isoquinolin-5-yl)-5-(trifluoromethyl)-1H-pyrazole-4-carboxamide]
13	18	69	25	18	CC(O)c1ncc(-n2ncc(C(=O)Nc3cnc(-n4nccn4)c(Cl)c3)c2C(F)(F)F)c2ccccc12 (centres unmarked) [Cpd 371, N-(5-chloro-6-(2H-1,2,3-triazol-2-yl)pyridin-3-yl)-1-(1-(1-hydroxyethyl)isoquinolin-4-yl)-5-(trifluoromethyl)-1H-pyrazole-4-carboxamide]
110	34	21	100	40	O=C(Nc1cnc(-n2nccn2)c(Cl)c1)c1cnn(-c2cccc3c[n+]([O-])ccc23)c1C(F)(F)F [Cpd 407, 5-(4-((5-chloro-6-(2H-1,2,3-triazol-2-yl)pyridin-3-yl)carbamoyl)-5-(trifluoromethyl)-1H-pyrazol-1-yl)isoquinoline 2-oxide]
107	39	58	63	27	C[C@@H](O)c1nccc2c(-n3ncc(C(=O)Nc4cnc(-n5nccn5)c(Cl)c4)c3C(F)(F)F)cccc12 (single isomer, unassigned) [Cpd 444, (*R)—N-(5-chloro-6-(2H-1,2,3-triazol-2-yl)pyridin-3-yl)-1-(1-(1-hydroxyethyl)isoquinolin-5-yl)-5-(trifluoromethyl)-1H-pyrazole-4-carboxamide]
120	18	5890	123	14	O=C(Nc1cnc(-n2nccn2)c(Cl)c1)c1cnn(-c2cccc3c(C4CCN4)nccc23)c1C(F)(F)F (centres unmarked) [Cpd 384, 1-(1-(azetidin-2-yl)isoquinolin-5-yl)-N-(5-chloro-6-(2H-1,2,3-triazol-2-yl)pyridin-3-yl)-5-(trifluoromethyl)-1H-pyrazole-4-carboxamide]
